Where a chain is given by its changes, count along the chain named.
Experiments:
[1] = target: T1, PPO2 R128I ΔG210 (Amaranthus tuberculatus, UniProt Q0NZW9, DEL210-210/R128I); assay: biochemical; assay type: biochemical
T1 sequence (Q0NZW9 with tags, fused parts or gaps R128I/DEL210-210): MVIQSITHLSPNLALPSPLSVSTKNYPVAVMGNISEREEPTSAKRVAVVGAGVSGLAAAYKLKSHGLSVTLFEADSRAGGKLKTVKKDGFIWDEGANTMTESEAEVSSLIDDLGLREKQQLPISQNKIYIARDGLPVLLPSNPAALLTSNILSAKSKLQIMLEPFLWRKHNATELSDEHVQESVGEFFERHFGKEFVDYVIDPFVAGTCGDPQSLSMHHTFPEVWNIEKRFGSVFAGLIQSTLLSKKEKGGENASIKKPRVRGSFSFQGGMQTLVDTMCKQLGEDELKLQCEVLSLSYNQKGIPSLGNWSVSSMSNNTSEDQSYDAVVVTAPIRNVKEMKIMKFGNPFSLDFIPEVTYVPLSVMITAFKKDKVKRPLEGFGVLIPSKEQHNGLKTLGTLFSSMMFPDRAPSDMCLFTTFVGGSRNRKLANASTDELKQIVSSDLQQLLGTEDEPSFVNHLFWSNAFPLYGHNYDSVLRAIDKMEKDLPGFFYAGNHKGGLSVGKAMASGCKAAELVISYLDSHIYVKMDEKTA

[2] = target: T2, PPO2 R128N ΔG210 (Amaranthus tuberculatus, UniProt Q0NZW9, DEL210-210/R128N); assay: biochemical; assay type: biochemical
T2 sequence (Q0NZW9 with tags, fused parts or gaps R128N/DEL210-210): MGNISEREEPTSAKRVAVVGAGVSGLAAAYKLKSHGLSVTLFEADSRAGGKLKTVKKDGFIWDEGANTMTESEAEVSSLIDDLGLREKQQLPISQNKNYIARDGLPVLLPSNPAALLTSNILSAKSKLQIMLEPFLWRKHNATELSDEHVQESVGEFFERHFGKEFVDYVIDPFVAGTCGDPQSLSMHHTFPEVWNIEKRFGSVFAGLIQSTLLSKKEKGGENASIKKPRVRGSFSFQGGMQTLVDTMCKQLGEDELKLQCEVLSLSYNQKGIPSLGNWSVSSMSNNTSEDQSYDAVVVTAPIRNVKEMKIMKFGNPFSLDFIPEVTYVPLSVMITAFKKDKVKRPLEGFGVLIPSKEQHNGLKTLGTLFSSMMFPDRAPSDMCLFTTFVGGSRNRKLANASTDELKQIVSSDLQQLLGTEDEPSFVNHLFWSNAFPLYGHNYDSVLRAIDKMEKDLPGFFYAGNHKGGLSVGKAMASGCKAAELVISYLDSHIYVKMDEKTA

[3] = target: T3, PPO2 R128Q ΔG210 (Amaranthus tuberculatus, UniProt Q0NZW9, DEL210-210/R128Q); assay: biochemical; assay type: biochemical
T3 sequence (Q0NZW9 with tags, fused parts or gaps R128Q/DEL210-210): T2 sequence (Q0NZW9 with tags, fused parts or gaps R128N/DEL210-210) with N98Q

[4] = target: T4, PPO2 R128A ΔG210 in Escherichia coli hemG (Amaranthus tuberculatus, UniProt Q0NZW9, DEL210/R128A, cells depend on it); assay type: cell-based; settings: read-out: IC50 (E. coli hemG growth)
T4 sequence (Q0NZW9 with tags, fused parts or gaps R128A/DEL210): T2 sequence (Q0NZW9 with tags, fused parts or gaps R128N/DEL210-210) with N98A

[5] = target: T5, PPO2 R128C ΔG210 in Escherichia coli hemG (Amaranthus tuberculatus, UniProt Q0NZW9, DEL210/R128C, cells depend on it); assay type: cell-based; settings: read-out: IC50 (E. coli hemG growth)
T5 sequence (Q0NZW9 with tags, fused parts or gaps R128C/DEL210): T2 sequence (Q0NZW9 with tags, fused parts or gaps R128N/DEL210-210) with N98C

[6] = target: T6, PPO2 R128N ΔG210 in Escherichia coli hemG (Amaranthus tuberculatus, UniProt Q0NZW9, DEL210-210/R128N, cells depend on it); assay type: cell-based; settings: read-out: IC50 (E. coli hemG growth)
T6 sequence (Q0NZW9 with tags, fused parts or gaps R128N/DEL210-210): T2 sequence (Q0NZW9 with tags, fused parts or gaps R128N/DEL210-210)

SMILES: CCOC(=O)C(C)OC(=O)c1cc(Oc2ccc(C(F)(F)F)cc2Cl)ccc1[N+](=O)[O-] (stereo not drawn) [Lactofen, lactofen]
- IC50 [1]: 1950 nM
- IC50 [2]: > 10000 nM
- IC50 [3]: 1750 nM
- IC50 [4]: > 10000 nM
- IC50 [5]: > 10000 nM
- IC50 [6]: > 10000 nM

SMILES: CS(=O)(=O)NC(=O)c1cc(Oc2ccc(C(F)(F)F)cc2Cl)ccc1[N+](=O)[O-] [Fomesafen, fomesafen]
- IC50 [1]: > 10000 nM
- IC50 [2]: > 10000 nM
- IC50 [3]: > 10000 nM

SMILES: CC(C)N(C)S(=O)(=O)NC(=O)c1cc(-n2c(=O)cc(C(F)(F)F)n(C)c2=O)c(F)cc1Cl [Saflufenacil, saflufenacil]
- IC50 [1]: > 10000 nM
- IC50 [2]: > 10000 nM
- IC50 [3]: > 10000 nM
- IC50 [4]: > 10000 nM
- IC50 [5]: > 10000 nM
- IC50 [6]: > 10000 nM

SMILES: C#CCN1C(=O)C(F)(F)Oc2cc(F)c(-n3c(=O)n(C)c(=S)n(C)c3=O)cc21 [Trifludimoxazin, trifludimoxazin]
- IC50 [1]: 99.3 nM
- Resistance factor [1]: 405
- IC50 [2]: 175 nM
- Resistance factor [2]: 714
- IC50 [3]: 14.5 nM
- Resistance factor [3]: 59
- IC50 [4]: 46.5 nM
- IC50 [5]: 46.5 nM
- IC50 [6]: 9.87 nM

— paper PMC10092844, “Inhibition profile of trifludimoxazin towards PPO2 target site mutations” (Pest Management Science, 2022)
